Reference: paper PMC10892984, “Novel Antineoplastic Inducers of Mitochondrial Apoptosis in Human Cancer Cells” (Molecules, 2024)

Columns and labels:
[1] = tested on: p21^Waf1/p21^Cip1, cyclin D1, Bax; assay: Expression of p53-regulated protein factors in cancer cells (data not shown); assay type: cell-based; conditions: mCRPC cells, multiple myeloma U266 cells, plasmacytoma RPMI-8226 cells
[2] = tested on: HIV-1LAI; assay: HIV-1LAI replication reverse transcriptase assay in primary PBM cells; assay type: cell-based, human immunodeficiency virus type 1
Description: The cytotoxicity and human immunodeficiency virus type 1 (HIV-1) strain LAI replication assays were performed in freshly explanted primary human peripheral blood mononuclear cells (PBM cells) according to published procedures. The assays were conducted at least in triplicate and treated statistically (if possible). HIV-1LAI (= HIV-1BRU = LAV-1) was assayed in primary human peripheral blood lymphocyte (PBL) cells in the presence of a drug being evaluated. The parameter for antiviral activity was a reduction in reverse transcriptase (RT) activity in the cell supernatant after Triton X–100-mediated lysis of released virions, as measured using [5α-^3H]dTTP (5α-tritiated thymidine 5′-triphosphate) incorporation into poly(rA)•poly(dT) directed by the primed RNA template poly(rA)•oligo(dT). […] The detailed assay methodology was reported by Schinazi et al. as based on an older assay system of Spira et al.. The experiments were conducted in triplicate and treated statistically using regression curve analysis (r^2 coefficient of determination). The RT inhibitor AZT (zidovudine, 3′-azido-3′-deoxythymidine; RETROVIR™) served as a positive control. Cytotoxicity on PBL and the other cells (CCRF−CEM, Vero) exerted by the test compounds was determined as described by Stuyver et al. by application of the CellTiter 96® AQueous One Solution Cell Proliferation Assay (Promega Corp., Madison, WI, USA). Briefly, the phenazine ethosulfate (PES)-coupled reduction of the tetrazolium salt 3-(4,5-dimethylthiazol-2-yl)-5-(3-carboxymethoxyphenyl)-2-(4-sulfophenyl)-2H-tetrazolium (MTS) to a purple, water-soluble formazan by living, undamaged cells was measured.

`c1cc(CNC23CC4CC(CC(C4)C2)C3)cc(C[N+](Cc2cccc(CNC34CC5CC(CC(C5)C3)C4)c2)(Cc2cccc(CNC34CC5CC(CC(C5)C3)C4)c2)Cc2cccc(CNC34CC5CC(CC(C5)C3)C4)c2)c1` (stereo not drawn) [Compound 1, tetrakis{3-[(tricyclo[3.3.1.1^3,7]decan-1-ammonio)methyl]benzyl}ammonium pentachloride] was tested, and the “cyclin D1 protein factor” value [1] was “downregulated”, the “expression of cyclin-dependent kinase inhibitor p21^Waf1/p21^Cip1” value [1] was “induced the expression” and the “pro-apoptotic factor Bax expression” value [1] was “increased”. The EC50 ([2]; Human immunodeficiency virus 1, PBMC, primary human PBM cells, reverse transcriptase activity in supernatant, read-out: Anti-HIV-1LAI activity EC50) was 0.56 µM, the EC90 ([2]; Human immunodeficiency virus 1, PBMC, primary human PBM cells, reverse transcriptase activity in supernatant, read-out: Anti-HIV-1LAI activity EC90) was 4.3 µM and the “SI50, selectivity index CC50/EC50” value ([2]; PBM cells) was 3.9.
